Values joined by “and” are separate entries in the source; they are usually repeats but may differ in a detail not shown here. Equal entries are not always repeated. Where two headings read alike, the source gives them in different places.
What was measured:
[1] = system: T. vaginalis trophozoites; settings: 1 µM [3H]-hypoxanthine over 300 s, with or without 1 mM unlabelled hypoxanthine
[2] = system: T. vaginalis nucleoside transporters, Adenosine (LA); assay: Low affinity adenosine transport; type: cell-based, Trichomonas vaginalis; settings: for inhibition of transport: highest tested concentration: guanosine 250 µM, adenine 1 mM, hypoxanthine 1 mM, uracil 10 mM; for Ki: read-out: Ki,app; for Ki / EC50: inhibition of 20 µM [3H]-adenosine transport; for EC50: Fig. 4; for Km: read-out: Km,app
[3] = system: T. vaginalis nucleoside transporters, Thymidine (HA); assay: Higher affinity [3H]-thymidine transport; type: cell-based, Trichomonas vaginalis; settings: for inhibition of transport: nucleobase at 1 mM
[4] = target: T. vaginalis nucleoside transporters, Adenosine (HA); assay: High affinity [3H]-adenosine transport in T. vaginalis trophozoites; type: cell-based, Trichomonas vaginalis; settings: for Ki: read-out: Ki,app, inhibition of […] [3H]-adenosine transport, monophasic
[5] = system: vaginal trichomonad infection; settings: murine model of vaginal trichomonad infection; ref Natto et al., 2021; cited from earlier work
TvagENT3 = TvagENT3 (Trichomonas vaginalis, UniProt A2E5Q3); assay: [3H]-cytidine uptake by T. brucei TbAT1-KO cells expressing TvagENT3
[6] = target: T. vaginalis nucleoside transporters, Guanosine (HA); assay: [3H]-guanosine transport in T. vaginalis trophozoites; type: cell-based, Trichomonas vaginalis; settings: read-out: Ki,app; inhibition of [3H]-guanosine transport; monophasic sigmoid curve; average and SEM
[7] = system: low affinity pyrimidine nucleobase transporter of T. vaginalis; assay: [3H]-uracil transport in T. vaginalis trophozoites; type: cell-based, Trichomonas vaginalis; settings: for inhibition of uracil transport: uridine, thymidine up to 10 mM, adenosine, inosine up to 1 mM
P1 transporter = settings: thymidine uptake by P1 transporter; ref De Koning and Jarvis, 1999; cited from earlier work
[8] = system: T. vaginalis nucleoside transporters, Thymidine (LA); assay: Low affinity thymidine transport; type: cell-based, Trichomonas vaginalis; settings: for EC50: Fig. 3E
[9] = system: O=c1ccn([C@@H]2O[C@H](CO)[C@@H](O)[C@H]2O)c(=O)[nH]1; assay: cells, lysate or membranes; settings: other: single experiment, Fig. 11D inset
uracil transporter = type: cell-based, Trypanosoma brucei; settings: 0.25 µM [3H]-uridine, control (empty vector) cells, 250 µM uracil
TvagENT6 = TvagENT6 (Trichomonas vaginalis, UniProt A2EMT5); assay: cell-based
[10] = target: T. vaginalis nucleoside transporters, Uridine (HA); assay: [3H]-uridine transport in T. vaginalis trophozoites; type: cell-based, Trichomonas vaginalis; settings: read-out: Ki,app; inhibition of 0.5 µM [3H]-uridine transport, 30 s; average and SEM
[11] = system: T. vaginalis adenine transporter; assay: [3H]-adenine transport in T. vaginalis trophozoites; type: cell-based, Trichomonas vaginalis
[12] = target: T. vaginalis nucleoside transporters, Inosine (LA); assay: Low affinity [3H]-inosine transport in T. vaginalis trophozoites; type: cell-based, Trichomonas vaginalis; settings: read-out: Ki,app, inhibition of 1 µM [3H]-inosine uptake, average and SEM
[13] = target: T. vaginalis nucleoside transporters, Cytidine (LA); assay: Low affinity cytidine transport in T. vaginalis trophozoites; type: cell-based, Trichomonas vaginalis; settings: read-out: Ki,app; inhibition of Cytidine (LA) transport; average and SEM
[14] = target: T. vaginalis nucleoside transporters, Cytidine (HA); assay: High affinity [3H]-cytidine transport in T. vaginalis trophozoites; type: cell-based, Trichomonas vaginalis; settings: read-out: Ki,app, inhibition of […] [3H]-cytidine transport, 30 s, average and SEM
[15] = system: T. vaginalis nucleoside transporters; settings: ref Harris et al., 1988; cited from earlier work
[16] = system: T. vaginalis trophozoites; assay: [3H]-guanine transport in T. vaginalis trophozoites; type: cell-based, Trichomonas vaginalis; settings: 2 µM [3H]-guanine
[17] = Lineweaver-Burk double reciprocal plot, single experiment, Fig. 3F
[18] = single experiment, Fig. 3C inset
[19] = saturation curve, single experiment, Fig. 3E inset
[20] = single experiment, Fig. 5D inset

Compound: O=c1[nH]cnc2nc[nH]c12 [hypoxanthine]
- specific uptake [1]: no specific uptake
- inhibition of transport ([2]; 20 µM [3H]-adenosine): ≤ 50%
- Ki ([2]; average and SEM): > 1000 µM
- inhibition of transport ([3]; 125 nM [3H]-thymidine): ≤ 50%
- Ki ([4]; 30 s, average and SEM): 185 ± 37 µM

Compound: Nc1ncnc2c1c(-c1ccc(Cl)cc1)cn2[C@@H]1O[C@H](CO)[C@@H](O)[C@H]1O [7-(4-Cl-phenyl),7-deazaadenosine]
- efficacy [5]: efficacious

Compound: Cc1cn([C@H]2C[C@H](O)[C@@H](CO)O2)c(=O)[nH]c1=O [thymidine]
- Hill slope (TvagENT3): −1.17 ± 0.15
- Ki (TvagENT3): 286 ± 12 µM
- inhibition at 400 µM (TvagENT3; read-out: inhibition of cytidine uptake): 62.6%
- Hill slope (TvagENT3; single experiment, Fig. 10D-F): −1.1
- Ki [6]: 206 ± 62 µM
- inhibition of uracil transport [7]: unable to inhibit
- affinity (P1 transporter): 44 µM
- EC50 ([2]; single experiment): 817 µM
- Ki ([2]; average and SEM): 557 ± 135 µM
- inhibition of uptake ([3]; 0.125 µM [3H]-thymidine by 1 mM unlabelled thymidine): 75%
- rate of uptake ([3]; 0.125 µM [3H]-thymidine, average of 4 experiments over 60 s): 0.0045 ± 0.0012 pmol(10^7 cells)^−1s^−1
- Vmax, higher affinity component [3, 17]: 2.2 pmol(10^7 cells)^−1s^−1
- Vmax ([3]; Thymidine (HA), average and SEM): 0.69 ± 0.37 pmol(10^7 cells)^−1s^−1
- Vmax ([3]; Thymidine (HA), average and SEM, listed as Thymidine): 6.7 ± 1.8 pmol(10^7 cells)^−1s^−1
- EC50 ([3]; inhibition of 0.125 µM [3H]-thymidine uptake, single experiment, Fig. 3C/D): 11.7 µM
- Km ([3]; read-out: Km, higher affinity component, Lineweaver-Burk double reciprocal plot, single experiment, Fig. 3F): 23.6 µM
- Km ([3]; read-out: Km,app, Thymidine (HA), 125 nM [3H]-thymidine, average and SEM): 13.2 ± 0.8 µM
- Km [3, 18]: 15.1 µM
- Vmax [3, 18]: 0.245 pmol(10^7 cells)^−1s^−1
- rate of uptake ([8]; 1 µM [3H]-thymidine): 0.139 ± 0.008 pmol(10^7 cells)^−1s^−1
- rate of uptake in the presence of unlabelled permeant ([8]; 1 µM [3H]-thymidine + 1 mM thymidine): 0.013 ± 0.0018 pmol(10^7 cells)^−1s^−1
- inhibition of uptake ([8]; 1 µM [3H]-thymidine by 1 mM unlabelled thymidine): 90.6%
- Vmax, low affinity component [8, 17]: 12.0 pmol(10^7 cells)^−1s^−1
- Vmax ([8]; Thymidine (LA), average and SEM): 9.4 ± 2.5 pmol(10^7 cells)^−1s^−1
- EC50 ([8]; read-out: EC50, higher affinity component, 1 µM [3H]-thymidine, 2-site equation, single experiment): 10.7 µM
- EC50 ([8]; read-out: EC50, lower affinity component, 1 µM [3H]-thymidine, 2-site equation, single experiment): 529 µM
- Km ([8]; read-out: Km, low affinity component, Lineweaver-Burk double reciprocal plot, single experiment, Fig. 3F): 340 µM
- Km ([8]; read-out: Km,app, Thymidine (LA), 1 µM [3H]-thymidine, average and SEM): 470 ± 104 µM
- Km [8, 19]: 394 µM
- Vmax [8, 19]: 12.9 pmol(10^7 cells)^−1s^−1
- Ki ([4]; 30 s, average and SEM): 274 ± 45 µM

Compound: TvagENT6 (Trichomonas vaginalis G3)
- Km [9]: 125.4 µM

Compound: O=c1cc[nH]c(=O)[nH]1 [uracil]
- rate of uptake ([7]; 0.5 µM [3H]-uracil): 0.0056 ± 0.0003 pmol(10^7 cells)^−1s^−1
- rate of uptake in the presence of unlabelled permeant ([7]; 0.5 µM [3H]-uracil + 1 mM unlabelled uracil): 0.0011 ± 0.0002 pmol(10^7 cells)^−1s^−1
- EC50 ([7]; 0.5 µM [3H]-uracil over 20 s, single experiment, Fig. 5D): 247 µM
- Vmax ([7]; 0.5 µM [3H]-uracil, 20 s, average): 1.58 ± 0.08 pmol(10^7 cells)^−1s^−1
- Km ([7]; read-out: Km,app, 0.5 µM [3H]-uracil, 20 s, average): 257 ± 58 µM
- Km [7, 20]: 298 µM
- Vmax [7, 20]: 1.43 pmol(10^7 cells)^−1s^−1
- inhibition of transport ([2]; 20 µM [3H]-adenosine): ≤ 50%
- Ki ([2]; average and SEM): > 10000 µM
- reduction of background uridine uptake (uracil transporter): ~ 85% and 84.7%
- inhibition of transport ([3]; 125 nM [3H]-thymidine): ≤ 50%

Compound: Nc1ncnc2c1ncn2[C@@H]1O[C@H](CO)[C@@H](O)[C@H]1O [adenosine]
- Ki (TvagENT6): 47.2 ± 6.4 µM
- Hill slope (TvagENT3): −1.04 ± 0.07
- inhibition of cytidine uptake (TvagENT3; 0.5 µM [3H]-cytidine, inhibitor at 400 µM): completely
- Hill slope (TvagENT3; single experiment, Fig. 10D-F): −1.1
- Ki [6]: 4.1 ± 0.9 µM
- inhibition of uracil transport [7]: unable to inhibit
- Ki [10]: 8.16 ± 0.59 µM
- Vmax ([2]; Adenosine (LA), average and SEM): 31 ± 2 pmol(10^7 cells)^−1s^−1
- EC50 ([2]; single experiment): 60.5 µM
- Km ([2]; Adenosine (LA), 20 µM [3H]-adenosine, average and SEM): 59.4 ± 6.1 µM
- Km ([2]; Adenosine (LA), 20 µM [3H]-adenosine, average and SEM, listed as Adenosine): 59 ± 6 µM
- Km ([2]; single experiment, Fig. 4A inset): 63.5 µM
- EC50 [11]: 85.9 µM
- Ki ([11]; read-out: Ki,app, inhibition of 50 nM [3H]-adenine transport): 155 ± 48 µM
- Ki [12]: 6.36 ± 1.69 µM
- Ki ([12]; listed as Adenosine): 6.4 ± 1.7 µM
- Ki [13]: 357 ± 32 µM
- Ki [14]: 2180 ± 290 nM
- Ki ([14]; listed as Adenosine): 2200 ± 300 nM
- Km [15]: 3.9 µM
- EC50 ([8]; 1 µM [3H]-thymidine, single experiment): 89.8 µM
- rate of transport in the presence of unlabelled permeant ([4]; 0.25 µM [3H]-adenosine + 1 mM unlabelled adenosine): 0.0091 ± 0.0085 pmol(10^7 cells)^−1s^−1
- inhibition of uptake ([4]; 0.25 µM [3H]-adenosine by 1 mM unlabelled adenosine): > 99%
- rate of transport ([4]; 0.25 µM [3H]-adenosine, over 60 s, uninhibited): 1.15 pmol(10^7 cells)^−1s^−1 and 1.15 ± 0.06 pmol(10^7 cells)^−1s^−1
- Vmax ([4]; Adenosine (HA), average and SEM): 9.5 ± 2.4 pmol(10^7 cells)^−1s^−1
- Km ([4]; read-out: Km,app, Adenosine (HA), […] [3H]-adenosine, 30 s, average and SEM): 6.2 ± 0.6 µM

Compound: Nc1nc2nc[nH]c2c(=O)[nH]1 [guanine]
- rate of uptake [16]: 0.017 ± 0.002 pmol(10^7 cells)^−1s^−1 and 0.0167 ± 0.0020 pmol(10^7 cells)^−1s^−1
